Measurements: US7015221B2, “2,4-disubstituted triazine derivatives” (Janssen Pharmaceutica, N.V., priority 1998, dated 2006)

How the values were obtained:
[1] = Cytotoxicity in mock-infected MT-4 cells (MTT); assay type: cell-based; details: human, concentration reducing absorbance of mock-infected MT-4 control by 50%

SMILES: Cc1cc(C)c(Oc2ncnc(Nc3ccc(C#N)cc3)n2)c(C)c1 [Compound 2, 4-[[4-(2,4,6-trimethylphenoxy)-1,3,5-triazin-2-yl]amino]benzonitrile]
- CC50 [1]: > 100 µM

SMILES: CC(C)c1cc(Br)c(Nc2ncnc(Nc3ccc(C#N)cc3)n2)c(Br)c1 [Compound 8, 4-[[4-[[2,6-dibromo-4-(1-methylethyl)phenyl]amino]-1,3,5-triazin-2-yl]amino]benzonitrile]
- melting point: 245 to 247 °C

SMILES: Cc1cc(C)c(Sc2ncnc(Nc3ccc(C#N)cc3)n2)c(C)c1 [Compound 4, 4-[[4-[(2,4,6-trimethylphenyl)thio]-1,3,5-triazin-2-yl]amino]benzonitrile]
- CC50 [1]: > 100 µM
